Experimental data as given in publication PMC8213730, “α-Helical peptidic scaffolds to target α-synuclein toxic species with nanomolar affinity” (Nature Communications, 2021).

Key:
[1] = target: α-synuclein type B* oligomers (AF488-labelled αS N122C) (UniProt P37840); test: dual-color fluorescence cross-correlation spectroscopy (dcFCCS)
[2] = target: α-synuclein sonicated amyloid fibrils (AF488-labelled αS N122C) (UniProt P37840); test: as above
[3] = target: α-synuclein type A* oligomers (AF488-labelled αS N122C) (UniProt P37840); test: as above
[4] = test system: α-synuclein (αS) amyloid aggregation; test: αS amyloid aggregation kinetics by thioflavin-T fluorescence; type: biochemical; details: 70 μM αS with 35, 14, 7 (3.5) μM peptide, PBS, 37 °C
Procedure: αS amyloid aggregation was monitored in a 96 wells plate (non-treated) (Sarstedt, Germany) containing Teflon polyballs (1/8′′ diameter) (Polysciences Europe GmbH, Eppelheim, Germany) as described by Pujols and coworkers. Each well contained 150 μL solutions of 70 μM αS in PBS buffer with 40 μM thioflavin-T and the corresponding concentration of peptide. Plates were incubated at 37 °C, 100 rpm in an orbital culture shaker Max-Q 4000 (Thermo Fisher Scientific, Waltham, USA). Aggregation was analyzed every 2 h using a Victor3.0 Multilabel Reader Software-PerkinElmer 2030. (PerkinElmer, Waltham, USA). End-point measurements were performed after 32 h of incubation. Fluorescence intensity was measured in triplicate by exciting with a 430–450 nm filter and collecting the emission with a 480–510 nm filter. The resulting kinetics were normalized to the maximum fluorescence of the αS control (untreated).

[5] = target: T1, α-synuclein (αS) type B* oligomers (Homo sapiens, UniProt P37840, N122C); test: dcFCCS binding of labelled peptide to αS type B* oligomers
T1 construct: made in house; host or cells: Escherichia coli BL21 (DE3), pET21a
Procedure: (§1) This variant was expressed and purified as described above but including 5 mM DTT in all purification steps. The protein was labeled with maleimide-modified Alexa Fluor 488 (AF488) (Invitrogen, Carlsbad, USA) for 15–20 h at 4 °C in the dark. After quenching the reaction with 10 mM DTT, free unreacted dye in the protein solution was subsequently separated using a P10 desalting column (GE Healthcare, Waukesha, USA), and the labeled protein solution was flash frozen with liquid nitrogen and stored at −80 °C. […] The same labeling and purification strategy were followed as for αS, although in this case the unreacted free dye was removed from the protein solution using a polyacrylamide desalting column (Thermo Fisher Scientific, Waltham, USA).
(§2) For the isolation of type B* oligomers purified αS was dialyzed against Milli-Q water and lyophilized for 48 h in aliquots of 6 mg. The aliquots were resuspended in 500 μL of PBS pH 7.4 to a final concentration of ca. 800 μM, filtered through 0.22 μm filters and incubated at 37 °C without agitation for 20–24 h.

[6] = target: T2, α-synuclein (αS) type A* oligomers (Homo sapiens, UniProt P37840, N122C); test: dcFCCS binding of labelled peptide to αS type A* oligomers
T2 construct: made in house; host or cells: Escherichia coli BL21 (DE3), pET21a

[7] = target: T3, α-synuclein (αS) sonicated fibrils (Homo sapiens, UniProt P37840, N122C); test: dcFCCS binding of labelled peptide to αS sonicated fibrils
T3 construct: made in house; host or cells: Escherichia coli BL21 (DE3), pET21a
Procedure: as §1, §2

[8] = target: α-synuclein N122C labelled with Alexa Fluor 488, monomer (UniProt P37840); test: FCS molecular brightness; sonicated fibril sample; brightness of the aggregates compared with that of the αS monomer; average number of αS molecules per aggregate

LL-37 with a single engineered N-terminal cysteine labelled with Atto647N (peptide)
stoichiometry N (binding sites per aggregate) [1]: 64 | stoichiometry N (binding sites per aggregate) [2]: 181 | stoichiometry N (binding sites per aggregate) [3]: 3

LELLEKLLKLLKDLLKKLL [Scaffold_19, only Leu, Asp, Glu and Lys]
anti-aggregation (inhibitory) activity, Th-T titration [4]: same anti-aggregation activity than the parental variant

CC[C@H](C)[C@H](NC(=O)[C@H](CCCCN)NC(=O)[C@H](CCC(=O)O)NC(=O)[C@H](CCCCN)NC(=O)[C@H](CO)NC(=O)[C@H](CCCCN)NC(=O)[C@H](CCCNC(=N)N)NC(=O)[C@H](Cc1ccccc1)NC(=O)[C@H](Cc1ccccc1)NC(=O)[C@H](CC(=O)O)NC(=O)CNC(=O)[C@H](CC(C)C)NC(=O)[C@@H](N)CC(C)C)C(=O)NCC(=O)N[C@@H](CCCCN)C(=O)N[C@@H](CCC(=O)O)C(=O)N[C@@H](Cc1ccccc1)C(=O)N[C@@H](CCCCN)C(=O)N[C@@H](CCCNC(=N)N)C(=O)N[C@H](C(=O)N[C@H](C(=O)N[C@@H](CCC(N)=O)C(=O)N[C@@H](CCCNC(=N)N)C(=O)N[C@H](C(=O)N[C@@H](CCCCN)C(=O)N[C@@H](CC(=O)O)C(=O)N[C@@H](Cc1ccccc1)C(=O)N[C@@H](CC(C)C)C(=O)N[C@@H](CCCNC(=N)N)C(=O)N[C@@H](CC(N)=O)C(=O)N[C@@H](CC(C)C)C(=O)N[C@H](C(=O)N1CCC[C@H]1C(=O)N[C@@H](CCCNC(=N)N)C(=O)N[C@H](C(=O)N[C@@H](CCC(=O)O)C(=O)N[C@@H](CO)C(=O)O)[C@@H](C)O)C(C)C)[C@@H](C)CC)C(C)C)[C@@H](C)CC [LL-37]
Kd [5]: 3.62 nM | Kd [6]: 1.92 nM | Kd [7]: 5.14 nM

LELLAKLLKLLKDLLGKLL [All_Leu19, variant of All-Leu devoid of the last three C-terminal residues]
anti-aggregation (inhibitory) activity, Th-T titration [4]: retained the inhibitory activity

LELLEELLKLLEDLLKKLL [Anionic_scaffold]
anti-aggregation (inhibitory) activity, Th-T titration [4]: does not inhibit

α-synuclein N122C labelled with Alexa Fluor 488, monomer (from UniProt P37840 1-140) (natural protein)
stoichiometry N (αS molecules per aggregate) [8]: 107
